In patent US20230233555A1 (AbbVie Inc., priority 2022, published 2023):
“Also recorded” adds a separate entry of the source.

How the values were obtained:
[1] = Drug interaction studies: effect of co-administered drugs on upadacitinib pharmacokinetics (incl. Study M13-401); type: in vivo, human
Source text: The data from Study M13-401 are provided in Table 38 and Table 39, which show the expected increase in Cmax and AUCss, respectively, in patients with UC across all dose levels with co-administration of CYP3A4 inhibitors.

[2] = molecular target: CYP2D6 (Homo sapiens, UniProt P10635); assay: In vitro metabolism / substrate assessment, CYP2D6; type: in vitro ADME
Sequence of CYP2D6 (P10635 whole entry): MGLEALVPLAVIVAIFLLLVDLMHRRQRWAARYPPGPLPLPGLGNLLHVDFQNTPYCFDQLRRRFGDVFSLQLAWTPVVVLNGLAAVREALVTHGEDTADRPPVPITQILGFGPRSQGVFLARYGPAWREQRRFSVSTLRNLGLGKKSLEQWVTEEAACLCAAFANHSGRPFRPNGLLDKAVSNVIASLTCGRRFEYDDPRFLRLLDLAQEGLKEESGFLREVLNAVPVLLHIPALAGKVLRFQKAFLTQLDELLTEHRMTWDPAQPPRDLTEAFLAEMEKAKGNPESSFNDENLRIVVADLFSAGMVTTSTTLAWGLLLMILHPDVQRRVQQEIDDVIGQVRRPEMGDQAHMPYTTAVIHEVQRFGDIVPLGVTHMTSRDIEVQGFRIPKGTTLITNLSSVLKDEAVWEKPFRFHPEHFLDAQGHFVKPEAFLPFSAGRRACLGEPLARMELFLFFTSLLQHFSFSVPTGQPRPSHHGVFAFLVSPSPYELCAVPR

[3] = test system: QTc interval; assay: Cardiac electrophysiology (QTc); type: in vivo, human
[4] = Plasma protein binding and blood to plasma partitioning; type: in vitro ADME; conditions: human, read-out: Bound to plasma proteins (converted)
[5] = test system: P-gp, BCRP, BSEP, OATP1B1, OATP1B3, OCT1, OCT2, OAT1, OAT3, MATE1, MATE2K; assay: In vitro transporter inhibition; type: in vitro ADME; conditions: clinically relevant concentrations
[6] = test system: human peripheral blood lymphocytes; assay: In vitro chromosome aberration assay; type: cell-based
[7] = Solubility in water; type: physicochemical; conditions: aqueous buffer, pH range of 2 to 9 at 37° C.
Source text: The strength of upadacitinib is based on anhydrous upadacitinib. […]

[8] = test system: lactating female Sprague-Dawley rats; assay: Milk excretion in lactating rats; type: in vivo, rat; conditions: single oral 10 mg/kg radiolabeled
Source text: (§1) Drug exposure was approximately 30-fold greater in milk than in maternal plasma based on AUC0-t values. Approximately 97% of drug-related material in milk was parent drug.

[9] = Milk excretion in lactating rats; type: in vivo, rat; conditions: female, Sprague-Dawley, rat, milk (relative to maternal plasma); single oral 10 mg/kg radiolabeled, post-partum days 7-8; read-out: Drug exposure in milk vs maternal plasma (AUC0-t)
Source text: as §1

[10] = clinical; conditions: human, in vivo
[11] = molecular target: CYP3A4 (Homo sapiens, UniProt P08684); assay: In vitro metabolism / substrate assessment, CYP3A4; type: in vitro ADME
Sequence of CYP3A4 (P08684 whole entry): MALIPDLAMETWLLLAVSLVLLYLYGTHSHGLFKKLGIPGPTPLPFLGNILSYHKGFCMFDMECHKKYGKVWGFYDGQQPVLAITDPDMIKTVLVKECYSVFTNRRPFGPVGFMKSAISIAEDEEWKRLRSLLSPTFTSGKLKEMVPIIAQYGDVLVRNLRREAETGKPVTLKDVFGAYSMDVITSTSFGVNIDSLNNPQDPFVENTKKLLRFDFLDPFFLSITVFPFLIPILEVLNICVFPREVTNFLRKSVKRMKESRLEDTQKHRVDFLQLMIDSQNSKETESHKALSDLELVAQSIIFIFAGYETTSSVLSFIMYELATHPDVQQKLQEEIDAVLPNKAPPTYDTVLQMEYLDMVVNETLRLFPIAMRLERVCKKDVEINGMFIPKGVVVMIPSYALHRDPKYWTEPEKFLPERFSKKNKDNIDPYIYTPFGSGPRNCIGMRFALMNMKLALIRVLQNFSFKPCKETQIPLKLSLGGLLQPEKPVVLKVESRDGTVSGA

[12] = Renal impairment pharmacokinetic study (Study M13-551); type: in vivo, human
Experimental: Renal clearance indicates some involvement of renal transporters in the excretion. Renal secretion is however not estimated to contribute to more than 25% of the elimination. […] As used herein, reference to “severe renal impairment” means a creatinine clearance of less than 30 mL/min.
This may increase the risk of adverse reactions; therefore, dosage modification in patients with severe renal impairment is recommended.

[13] = test system: Tg.rasH2 mice; assay: Carcinogenicity study in Tg.rasH2 mice; type: in vivo, mouse; conditions: 26 weeks, oral up to 20 mg/kg/day
[14] = test system: Sprague-Dawley rats; assay: Carcinogenicity study in Sprague-Dawley rats; type: in vivo, rat; conditions: for Exposure multiple at top dose without tumorigenicity: AUC basis
[15] = test system: P-gp, BCRP; assay: In vitro transporter substrate assessment, P-gp and BCRP; type: in vitro ADME
[16] = Model-estimated and predicted upadacitinib Cmax and AUCss in UC patients with severe renal impairment; parameters: species or system human; conditions: for Predicted Cmax in UC Patients with Severe Renal Impairment based on results from M13-551, Median: model-estimated value multiplied by 1.14; for Predicted AUCss in UC Patients with Severe Renal Impairment based on results from M13-551, Median: model-estimated value multiplied by 1.44
Experimental: Therefore, it is recommended that the induction dose is reduced in UC patients with severe renal impairment to 30 mg QD.
Therefore, it is recommended that the maintenance dose is reduced in UC patients with severe renal impairment to 15 mg QD.

[17] = human, in vivo
[18] = test system: patients with rheumatoid arthritis; assay: Rheumatoid arthritis Phase 3 trials, integrated datasets (RA-I to RA-V)
Source text: Exposure adjusted incidence rates were adjusted by trial for all the adverse events reported in this section.
Patients 18 years of age and older were eligible to participate. The presence of at least 6 tender and 6 swollen joints and evidence of systemic inflammation based on elevation of hsCRP was required at baseline.

[19] = Human radiolabeled [14C]-upadacitinib study (metabolism and excretion); type: in vivo
[20] = test system: CYP1A2, CYP2B6, CYP2C8, CYP2C9, CYP2C19, CYP2D6, CYP3A4; assay: In vitro CYP inhibition; type: in vitro ADME; conditions: clinically relevant concentrations
[21] = test system: pregnant female rats; assay: Oral pre- and post-natal development study in rats; type: in vivo; conditions: GD 6 through lactation day 20, AUC basis, 10 mg/kg/day
[22] = Hepatic impairment pharmacokinetic study; type: in vivo, human
[23] = test system: CYP3A4, CYP2B6, CYP1A2; assay: In vitro CYP induction; type: in vitro ADME
[24] = test system: pregnant rats; assay: Oral embryo-fetal development studies in rats
[25] = e.g. ketoconazole, Study M13-401
[26] = ketoconazole 400 mg QD, upadacitinib IR formulation
[27] = rifampicin 600 mg QD for 8 days
[28] = 12-month exposure dataset (RA-I, II, III, V), 30 mg
[29] = MTX-controlled RA-I and RA-II, 12/14 weeks, 30 mg monotherapy
[30] = RA-III and RA-V placebo-controlled, 12 weeks, 30 mg

## CC[C@@H]1CN(C(=O)NCC(F)(F)F)C[C@@H]1c1cnc2cnc3[nH]ccc3n12 [upadacitinib, (3S,4R)-3-Ethyl-4-(3H-imidazo[1,2-a]pyrrolo[2,3-e]pyrazin-8-yl)-N-(2,2,2-trifluoroethyl)pyrrolidine-1-carboxamide hydrate (2:1)]
[1]; co-administration with methotrexate
  Upadacitinib exposure with methotrexate: no effect
[1]; concomitant administration
  Upadacitinib plasma exposure with strong CYP2D6 inhibitors, OATP1B inhibitors, MTX, pH modifying medications or statins: no effect
[1]; [25]
  Upadacitinib AUC (AUCinf) increase with strong CYP3A4 inhibitor: 75%
  Upadacitinib Cmax increase with strong CYP3A4 inhibitor: 70%
[1]; ketoconazole 400 mg QD
  Upadacitinib half-life with ketoconazole: no effect on half-life
[1]; [26]
  Upadacitinib AUC increase with ketoconazole: 1.8 fold
  Upadacitinib Cmax increase with ketoconazole: 1.7 fold
[1]; [27]
  Upadacitinib AUC decrease with rifampicin: 60%
  Upadacitinib Cmax decrease with rifampicin: 50%
[2]
  Substrate of / metabolised by CYP2D6: substrate; also recorded: potential minor contribution from CYP2D6
[3]; 2.5 times the mean exposure of the 45 mg once daily dose
  Effect on QTc interval: no clinically relevant effect
[3]; 6 times the mean maximum exposure of the 15 mg once daily dose
  Effect on QTc interval: no clinically relevant effect
[4]
  fraction unbound: 0.48
[5]
  Inhibition of transporters (P-gp, BCRP, OATP1B1, OATP1B3, OCT1, OCT2, OAT1, OAT3, MATE1, MATE2K): does not inhibit; also recorded: no in vivo relevant inhibition
[6]
  Genotoxicity, chromosome aberration: tested negatively
[7]
  solubility: ≤ 38 mg/mL
[8]
  Parent drug share of drug-related material in milk: Approximately 97%
[9]
  Kp: ~30
[10]
  half-life: 8 to 14 h
[10]; po
  Tmax: 2 to 4 h
[11]
  Substrate of / metabolised by CYP3A4: substrate; also recorded: mediated by mainly CYP3A4; also recorded: metabolized in vitro by CYP3A4
[12]; in vivo
  Cmax, impaired vs normal renal function: similar
  Contribution of the renal route to elimination: approximately 25%
[12]; mild renal impairment
  AUCinf higher vs normal renal function: 18%
[12]; moderate renal impairment
  AUCinf higher vs normal renal function: 33%
[12]; severe renal impairment
  AUCinf higher vs normal renal function: 44%
[12]; severe renal impairment, Study M13-551
  Cmax higher vs normal renal function: 14%
[13]
  Tumorigenicity: No evidence of tumorigenicity
[14]; female rats, 20 mg/kg/day
  Exposure multiple at top dose without tumorigenicity: ~6.0 times the MRHD of 30 mg
[14]; male rats, 15 mg/kg/day
  Exposure multiple at top dose without tumorigenicity: approximately 2.4 times the MRHD of 30 mg
[14]; up to 101 weeks, oral up to 15 (male) or 20 (female) mg/kg/day
  Tumorigenicity: No evidence of tumorigenicity
[15]
  Substrate of P-gp and BCRP: substrate
[16]; 7.5 mg treatment group
  Predicted Cmax in UC Patients with Severe Renal Impairment based on results from M13-551, Median: 23.0 ng/mL
  Predicted AUCss in UC Patients with Severe Renal Impairment based on results from M13-551, Median: 232 ng·h/mL
[16]; 15 mg treatment group
  Predicted Cmax in UC Patients with Severe Renal Impairment based on results from M13-551, Median: 47.1 ng/mL
  Predicted AUCss in UC Patients with Severe Renal Impairment based on results from M13-551, Median: 492 ng·h/mL
[16]; 30 mg treatment group
  Predicted Cmax in UC Patients with Severe Renal Impairment based on results from M13-551, Median: 89.5 ng/mL
  Predicted AUCss in UC Patients with Severe Renal Impairment based on results from M13-551, Median: 940 ng·h/mL
[16]; 45 mg treatment group
  Predicted Cmax in UC Patients with Severe Renal Impairment based on results from M13-551, Median: 138 ng/mL
  Predicted AUCss in UC Patients with Severe Renal Impairment based on results from M13-551, Median: 1431 ng·h/mL
[17]
  AUCinf increase with high-fat/high-calorie meal: 29%
  Accumulation after multiple once-daily administrations: minimal accumulation
  Cmax increase with high-fat/high-calorie meal: 39%
  Contribution of renal secretion to elimination: ≤ 25%
  Dose proportionality of plasma exposures: proportional to dose
  Time to steady-state plasma concentrations: ≤ 4 days
[18]; [28]
  Opportunistic infections (excluding tuberculosis), number of patients: 15 patients
  Opportunistic infections (excluding tuberculosis), rate: 1.4 per 100 patient-years
[18]; 12-month exposure dataset, 30 mg
  Active tuberculosis, number of patients: 1 patient
[18]; [29]
  Opportunistic infections (excluding tuberculosis), number of patients: 4 patients
  Opportunistic infections (excluding tuberculosis), rate: 3.2 per 100 patient-years
[18]; RA MTX-controlled period, 30 mg monotherapy
  Active tuberculosis cases: no active cases
[18]; RA patients, controlled period
  Change in mean IgG and IgM levels from baseline: small decreases
[18]; RA patients, up to Week 36
  Change in mean ALC from baseline: small, transient increase
[18]; RA placebo-controlled period, 30 mg
  Active tuberculosis cases: no active cases
[18]; [30]
  Opportunistic infections (excluding tuberculosis), number of patients: 6 patients
  Opportunistic infections (excluding tuberculosis), rate: 7.1 per 100 patient-years
[19]; human radiolabeled study
  Unchanged upadacitinib share of total radioactivity in plasma: 79%
[19]; in vivo
  Active metabolites: No active metabolites
[20]
  Inhibition (or induction) of CYP1A2, 2B6, 2C8, 2C9, 2C19, 2D6, 3A4: does not inhibit or induce; also recorded: no in vivo relevant inhibition
[21]
  Exposure multiple with no maternal or developmental toxicity: approximately 1.6 times the MRHD of 30 mg
[22]; mild hepatic impairment
  Cmax vs normal liver function: unchanged
[22]; mild hepatic impairment (Child-Pugh A)
  AUC (AUCinf) higher vs normal hepatic function: 28%
[22]; moderate hepatic impairment
  Cmax higher vs normal liver function: 43%
[22]; moderate hepatic impairment (Child-Pugh B)
  AUC (AUCinf) higher vs normal hepatic function: 24%
[23]
  Induction of CYP1A2: borderline
  Induction of CYP3A4 and CYP2B6: inducer
[24]; AUC basis, 75 mg/kg/day
  Exposure multiple with additional skeletal malformations and decreased fetal body weights, no maternal toxicity: approximately 48 times the MRHD of 30 mg
[24]; GD 6 to 17, AUC basis, 5 mg/kg/day and higher
  Exposure multiple with teratogenicity (misshapen humerus, bent scapula): ≥ 1.0 times the MRHD of 30 mg
[24]; oral
  Exposure multiple with developmental toxicity (skeletal malformations, decreased fetal body weights): ≥ 2 times the 15 mg dose
[24]; oral, organogenesis
  Exposure multiple with no developmental toxicity: approximately 0.3 times the 15 mg dose
